Key:
[1] = test system: cercariae of Schistosoma mansoni; conditions: Fripp and Armstrong 1973; cited from earlier work
[2] = test system: cercariae of Schistosoma mansoni; conditions: topical, monkeys; Bruce et al. 1992; cited from earlier work
[3] = test system: cercariae of Schistosoma mansoni; conditions: topical agent; Salafsky et al. 1998; cited from earlier work
[4] = test system: Schistosoma mansoni cercariae; assay: Activity against Schistosoma mansoni cercariae (survival/mobility in water); format: cell-based; conditions: 500 μl/l final concentration of the active compound; PEG300/aquarium water; test period of 120 minutes
Protocol: Activity Against Schistosoma mansoni cercariae
[500 μl/l Final Concentration of the Active Compounds]
Snails (Biomphalaria glabrata) were infected by incubating each of them with 8 miracidia in 10 ml of water overnight. About 6 to 9 weeks after the infection, cercariae were obtained by irradiating the snails, which had been kept in darkness, with light, followed by collection of the swarming cercariae within 2 hours.
Such an amount of cercariae-containing water (1 or 2 ml, see below) was added to the test batches that each batch contained about 100 to 150 cercariae.
5 μl of active compound were mixed thoroughly with 25 μl of PEG300. 9 ml of aquarium water was then added, and the batch was shaken vigorously. After (delayed) addition of 1 ml of cercariae suspension, survival of the cercariae was in each case observed immediately using a stereomagnifier.

Structure (SMILES): Oc1c(Cl)cc(Cl)c(Cl)c1Cc1c(O)c(Cl)cc(Cl)c1Cl [hexachlorophene]
- effect on cercariae of Schistosoma mansoni [1]: lethal effect

Structure (SMILES): O=C(Nc1ccc([N+](=O)[O-])cc1Cl)c1cc(Cl)ccc1O [Niclosamide]
- action against the penetration of cercariae [2]: acts against the penetration of cercariae

Structure (SMILES): CCN(CC)C(=O)c1cccc(C)c1 [N,N-Diethyl-m-toluamide (DEET), N,N-Diethyl-m-toluamide]
- action against cercariae of Schistosoma mansoni [3]: acts against cercariae

Structure (SMILES): CCCCOC(=O)CN(CCCC)C(C)=O
- activity of the active compounds against cercariae (classification 0-3) [4]: 1

Reference: patent publication US20040006136A1, “Anthelmintics for preventing parasitic infections in human and animals” (priority 2000, published 2004)
